From paper PMC6149949, “Synthesis and Evaluation of Thiochroman-4-One Derivatives as Potential Leishmanicidal Agents” (Molecules : A Journal of Synthetic Chemistry and Natural …, 2017)

Columns and labels:
[1] = tested on: intracellular amastigotes of Leishmania panamensis (MHOM/CO/87/UA140-EGFP strain); assay: In vitro antileishmanial activity on intracellular amastigotes (GFP, flow cytometry); format: cell-based; conditions: for EC50: intracellular amastigotes of L. panamensis in U-937 cells, 72 h, mean ± SD; for SI (index of selectivity, IS = LC50/EC50): LC50 U-937 / EC50 L. panamensis amastigotes
Experimental: Antileishmanial activity of compounds was determined according to the ability of the compound to reduce the infection by L. panamensis parasites. For this, the antileishmanial activity was tested on intracellular amastigotes of L. panamensis transfected with the green fluorescent protein gene (MHOM/CO/87/UA140-EGFP strain). Briefly, U-937 human cells at a density of 3 × 10^5 cells/mL in RPMI 1640 and 0.1 μg/mL of PMA (phorbol-12-myristate-13-acetate) were dispensed on 24-wells microplate and then infected with stationary phase growing L. panamensis promastigotes in 15:1 parasites per cell ratio. Plates were incubated at 34 °C and 5% CO2 for 3 h and then cells were washed twice with phosphate buffer solution (PBS) to eliminate not internalized parasites. Fresh RPMI-1640 was added into each well (1 mL) and plates were incubated again. After 24 h of infection, the RPMI-1640 medium was replaced by fresh culture medium containing each compound at four serial dilutions (50, 12.5, 3.125 and 0.78 μg/mL) and plates were then incubated at 37 °C and 5% CO2 during 72 h, then, cells were removed from the bottom plate with 100 μL of EDTA/Trypsin (250 mg) solution. The cells were centrifuged at 1100 rpm during 10 min at 4 °C, the supernatant was discarded and cells were washed with 1 mL of cold PBS and centrifuged at 1100 rpm for 10 min at 4 °C. Cells were washed two times employing PBS, as previously, and after the last wash, the supernatant was discarded and cells were suspended in 500 μL of PBS.
Cells were analyzed by flow cytometry employing a flow cytometer (cytomics FC 500MPL, Beckman Coulter. Pasadena, CA, USA) reading at 488 nm (exciting) and 525 nm (emitting) over an argon laser and counting 10,000 events. Infected cells were determined according the events for green fluorescence (parasites). All determinations for each compound and standard drug were carried out by triplicate, in two experiments. Infected cells exposed to control drug (amphotericin B) were used as control for antileishmanial activity (positive control) while infected cells incubated in absence of any compound or drug were used as control for infection (negative control). Nonspecific fluorescence was corrected by subtracting fluorescence of unstained cells. Determinations were done by triplicate in at least two independent experiments.
Antileishmanial activity was determined according reduction of percentage of fluorescent parasites determined according to the median fluorescence intensity (MFI), obtained for each experimental condition by cytometry. The parasite values for each concentration of compound were calculated by Equation (3), where the % of parasites in the control well, corresponds to 100% of parasites. % parasites = (MFI exposed parasites/MFI unexposed parasites) × 100(3)
Then, inhibition percentage was calculated with Equation (4):% inhibition of parasites = 100 − (% parasites)(4)
Results of antileishmanial activities were expressed as the median effective concentrations (EC50) measured by Probit method.

[2] = in vitro; conditions: human
Experimental: Cytotoxicity of the compounds was evaluated over human monocytes (U-937 ATCC CRL-1593.2) in exponential growing phase and, adjusted at 1 × 10^5 cells/mL in RPMI-1640 enriched with 10% fetal bovine serum (FBS). One hundred microliters of cell suspension were dispensed in each well of a 96-wells microplate and then, 100 μL of each compound or standard drug (amphotericin B) at four serial dilution concentrations (200, 50, 12.5 and 3.125 μg/mL) were added dissolved in pbs with 0.5% DMSO. Cell exposed to compounds or standard drugs were incubated 72 h at 37 °C and 5% of CO2. Cytotoxic activity of each compound was determined according to the effect on the cell viability by the MTT microenzymatic method in which 3-(4,5-dimethylthiazol-2-yl)- 2,5-diphenyltetrazolium bromide is reduced to a purple product named formazan by mitochondrial enzyme succinate dehydrogenase. Thus, 10 μL/well of MTT solution (5 mg/mL) were added to each well of exposed and unexposed cells, and plates were incubated at 37 °C, 5% CO2 during 3 h. The reaction was stopped by adding 100 μL/well of isopropanol with 50% and 10% of SDS (sodium dodecyl sulfate). The concentration of formazan was determined spectrophotometrically at 570 nm (Varioskan Flash Multimode Reader, Thermo Scientific, Waltham, MA, USA) and intensity of color (absorbance) was registered as O.D. Cells exposed to control drug (amphotericin B) were used as control for toxicity (positive control) while cell incubated in absence of any compound or drug were used as control for viability (negative control). Non-specific absorbance was corrected by subtracting absorbance (O.D) of the blank. Determinations were done by triplicate in at least two independent experiments.
Cytotoxicity was determined according to viability and mortality percentages obtained for each experimental condition (synthetized compounds, amphotericin B and culture medium). Results were expressed as the mean lethal concentrations (LC50), concentration necessary to kill 50% of cells, calculated by the parametric method of linear regression that permits doses-response analysis (Probit analysis).
Initially, viability percentages were calculated by Equation (1), where the O.D of control well, corresponds to 100% of viability. % viability = (O.D exposed cells/O.D unexposed cells) × 100(1)
Then, the percentage of cell growth inhibition was calculated using Equation (2):% inhibition = 100 − (% Viability)(2)
The toxicity was defined according to LC50 values, using the follow scale: Toxic; LC50 < 100 μM; moderately toxic; LC50 > 100 μM and <200 μM and potentially nontoxic; LC50 > 200 μM.

[3] = Leishmania panamensis, U-937, 72 h

Row | Structure (SMILES) | EC50 [1, 3] [µM] | CC50 at 72 h [2] [µM] | SI (index of selectivity, IS = LC50/EC50) [1] | EC50 [1] [µM]
1 | O=c1cc(-c2ccc(Cl)cc2)sc2ccccc12 [Compound 2k, 2-(4-Chlorophenyl)-4H-thiochromen-4-one] | > 73.3 | > 733 | – | –
2 | O=c1cc(-c2ccc(F)cc2)sc2ccccc12 [Compound 2l, 2-(4-Fluorophenyl)-4H-thiochromen-4-one] | > 78 | 503 ± 382 | <6.45 | –
3 | O=c1cc(-c2ccc([N+](=O)[O-])cc2)sc2ccccc12 [Compound 2m, 2-(4-nitrophenyl)-4H-thiochromen-4-one] | > 70.6 | > 706 | – | –
4 | CC1CC(=O)c2ccccc2S1(=O)=O (centres unmarked) [Compound 3a, 2-Methylthiochroman-4-one 1,1-dioxide] | > 95.2 | > 825 | – | –
5 | CC1CC(=O)c2cc(F)ccc2S1(=O)=O (centres unmarked) [Compound 3b, 6-Fluoro-2-methylthiochroman-4-one 1,1-dioxide] | > 87.7 | > 876 | – | –
6 | O=C1CCS(=O)(=O)c2ccc(F)cc21 [Compound 3c, 6-Fluorothiochroman-4-one 1,1-dioxide] | > 93.5 | > 934 | – | –
7 | O=C1CC(c2ccccc2)S(=O)(=O)c2ccccc21 (centres unmarked) [Compound 3h, 2-Phenylthiochroman-4-one 1,1-dioxide] | 217 ± 34.9 | 529 ± 52.9 | – | –
8 | O=C1CC(c2ccc(C(F)(F)F)cc2)S(=O)(=O)c2ccccc21 (centres unmarked) [Compound 3i, 2-(4-(Trifluoromethyl)-phenyl)-thiochroman-4-one 1,1-dioxide] | 84.8 ± 3.23 | 62.9 ± 10.3 | 0.74 | –
9 | O=C1CC(c2ccc(C(F)(F)F)cc2)S(=O)(=O)c2ccc(F)cc21 (centres unmarked) [Compound 3j, 6-Fluoro-2-(4-(trifluoromethyl)-phenyl)-thiochroman-4-one 1,1-dioxide] | 79.1 ± 8.98 | > 558 | >7.06 | –
10 | O=C1CC(c2ccc(Cl)cc2)S(=O)(=O)c2ccccc21 (centres unmarked) [Compound 3k, 2-(4-Chlorophenyl)-thiochroman-4-one 1,1-dioxide] | 137.1 ± 1.29 | > 652 | >4.76 | –
11 | O=C1CC(c2ccc(F)cc2)S(=O)(=O)c2ccccc21 (centres unmarked) [Compound 3l, 2-(4-Fluorophenyl)thiochroman-4-one 1,1-dioxide] | > 68.9 | 689 | – | –
12 | O=C1CC(c2ccc([N+](=O)[O-])cc2)S(=O)(=O)c2ccccc21 (centres unmarked) [Compound 3m, 2-(4-Nitrophenyl)-thiochroman-4-one 1,1-dioxide] | > 63 | > 630 | – | –
13 | O=C1C=C(c2ccccc2)S(=O)(=O)c2ccccc21 [Compound 4h, 2-Phenyl-4H-thiochromen-4-one 1,1-dioxide] | < 10 | > 740 | >97.94 | 7.56 ± 0.33
14 | O=C1C=C(c2ccc(C(F)(F)F)cc2)S(=O)(=O)c2ccccc21 [Compound 4i, 2-(4-(Trifluoromethyl)-phenyl)-4H-thiochromen-4-one 1,1-dioxide] | < 10 | > 591 | >80.97 | 7.3 ± 1.6
15 | O=C1C=C(c2ccc(Cl)cc2)S(=O)(=O)c2ccccc21 [Compound 4k, 2-(4-Chlorophenyl)-4H-thiochromen-4-one 1,1-dioxide] | < 10 | > 656 | >87.70 | 7.47 ± 0.75
16 | O=C1C=C(c2ccc(F)cc2)S(=O)(=O)c2ccccc21 [Compound 4l, 2-(4-Fluorophenyl)-4H-thiochromen-4-one 1,1-dioxide] | < 10 | > 694 | – | 6.72 ± 0.16
17 | O=C1C=C(c2ccc([N+](=O)[O-])cc2)S(=O)(=O)c2ccccc21 [Compound 4m, 2-(4-Nitrophenyl)-4H-thiochromen-4-one 1,1-dioxide] | < 10 | > 634 | >87.70 | 7.23 ± 0.44
